The target in one assay is T1, IDE (Homo sapiens, UniProt P14735).
T1 construct: made in house; host or cells: bacteria
T1 sequence (P14735 1-1019): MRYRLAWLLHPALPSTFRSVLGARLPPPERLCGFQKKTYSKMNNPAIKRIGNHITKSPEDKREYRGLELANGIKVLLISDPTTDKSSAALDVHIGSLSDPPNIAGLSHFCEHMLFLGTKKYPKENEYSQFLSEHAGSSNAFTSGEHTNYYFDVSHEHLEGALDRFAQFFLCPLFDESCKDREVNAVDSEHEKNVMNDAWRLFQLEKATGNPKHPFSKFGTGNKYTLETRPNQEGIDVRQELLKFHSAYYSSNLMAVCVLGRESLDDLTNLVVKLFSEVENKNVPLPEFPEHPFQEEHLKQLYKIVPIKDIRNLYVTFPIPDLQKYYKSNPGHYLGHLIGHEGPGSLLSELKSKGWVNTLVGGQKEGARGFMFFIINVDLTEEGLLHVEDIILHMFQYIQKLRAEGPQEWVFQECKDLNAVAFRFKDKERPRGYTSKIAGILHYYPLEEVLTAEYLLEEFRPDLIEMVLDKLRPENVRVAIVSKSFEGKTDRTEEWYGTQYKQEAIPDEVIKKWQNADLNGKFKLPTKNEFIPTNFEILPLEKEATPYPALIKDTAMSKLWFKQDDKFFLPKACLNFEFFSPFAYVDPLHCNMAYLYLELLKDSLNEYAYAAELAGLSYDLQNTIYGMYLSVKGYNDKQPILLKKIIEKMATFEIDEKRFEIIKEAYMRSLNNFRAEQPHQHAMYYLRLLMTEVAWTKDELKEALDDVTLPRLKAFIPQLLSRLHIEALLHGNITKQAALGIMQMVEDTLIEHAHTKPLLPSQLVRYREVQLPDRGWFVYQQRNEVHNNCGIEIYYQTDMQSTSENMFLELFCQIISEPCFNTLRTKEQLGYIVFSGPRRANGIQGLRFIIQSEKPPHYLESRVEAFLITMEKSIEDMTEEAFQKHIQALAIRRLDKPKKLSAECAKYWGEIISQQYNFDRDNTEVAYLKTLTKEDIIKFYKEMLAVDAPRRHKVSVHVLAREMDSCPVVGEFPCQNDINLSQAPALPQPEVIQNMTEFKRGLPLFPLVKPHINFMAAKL
The assay is described as follows: IDE protease activity assay, insulin degradation quantified by ELISA. Format: biochemical. The procedure:
To assess the extent to which these peptide sequences inhibit IDE, we quantified their potency in protease activity assays using recombinant human IDE and two different substrates: FRET1, a fluorogenic peptide (45), and recombinant human insulin.
Degradation Assays—IDE activity was quantified by monitoring the degradation of (7-methoxycoumarin-4-yl)acetic acid-[…](2,4-dinitrophenyl) (FRET1, 5 μM) (49,55), fluoresceinated and biotinylated amyloid β-protein (FAβB; 500 nM) or recombinant human insulin (50 nM) in PBS supplemented with 0.05% BSA. FRET1 degradation was measured by changes in fluorescence (λex=340 nm, λem=420 nm); FAβB degradation was monitored by fluorescence polarization (λex=488 nm, λem=525 nm), as described (56); and insulin degradation was quantified by ELISA. In vitro activity assays incorporated recombinant human IDE (1 nM) purified from bacteria (35). For quantitation of insulin degradation in primary murine skin fibroblasts, cells (1×10^5/well) were plated in 96-well plates and maintained in DMEM supplemented with 10% fetal bovine serum (FBS), 2 mM glutamine, penicillin and streptomycin. After addition of insulin (10 nM or 100 nM), samples of conditioned medium were removed daily and quickly frozen, then insulin levels were quantified in parallel by ELISA according to manufacturer's recommendations (Crystal Chem, Downers Grove, Ill., USA). Assessment of the activity of P12-3A against a variety of matrix-metalloproteases was conducted using the Matrix Metalloproteinase (MMP) Inhibitor Profiling Kit, Fluorometric RED (Enzo Life Sciences, Inc., Farmingdale, N.Y., USA) according to manufacturer's recommendations using the broad-spectrum MMP inhibitor, NNGH, as a positive control.
On the technique in general: An ELISA detects its analyte on a solid surface through an enzyme-linked reagent.

Another assay concerns HaCaT cells. The assay is described as follows: In vitro scratch wound assay, keratinocyte migration. Type of assay: cell-based. Conditions: P12-3A 100 μM, 48 h after scratch wound, different concentrations of insulin. The procedure:
FIG. 4A-F. Effects of P12-3A on cultured skin cells. A, Insulin concentrations as a function of time in logarithmically growing primary murine skin fibroblasts in the absence or presence of P12-3A (100 μM). […] Data are mean±SEM of 4 independent replications. *P<0.05, **P<0.01. B, Proliferation of cells in the absence or presence of P12-3A (100 μM). […] C,D,E, P12-3A (100 μM) potentiates insulin-induced collagen production in skin fibroblasts. Collagen production was assessed by COL1A1 mRNA levels (C), levels of hydroxyproline secreted into the medium (D), and cell-associated mature alpha-1 type I collagen levels detected by Western blotting (E). […] Migration of HaCaT cells 48 h after induction of a scratch wound in the presence of the indicated quantities of insulin and/or P12-3A (100 μM). […]
Insulin promotes wound healing and overall skin health by affecting a number of processes, including cell proliferation (2,3), cell migration (5,6), and the production and secretion of ECM components, particularly type I collagen (7-13). We therefore assessed the ability of P12-3A to influence these processes in cultured skin fibroblasts and keratinocytes. To that end, primary mouse skin fibroblasts were grown for 4 d in multiple concentrations of insulin in the presence or absence of P12-3A, and insulin concentration over time was monitored by ELISA. […]

Entries after “also recorded” stand apart in the source; their conditions may differ. Read-outs that look alike come from different tables or passages of the source. Where a SMILES comes first, the peptide text is derived from it. Bridges are numbered along the chain shown (N, C = ends).

Turning to `CC(C)C[C@H](NC(=O)[C@H](CO)NC(=O)[C@@H](N)CCC(N)=O)C(=O)N1CCC[C@H]1C(=O)N[C@@H](Cc1c[nH]c2ccccc12)C(=O)N[C@H]1CSSC[C@@H](C(=O)N[C@H](C(=O)N[C@H](C(N)=O)[C@@H](C)O)C(C)C)NC(=O)[C@H](Cc2c[nH]cn2)NC(=O)[C@@H]2CCCN2C(=O)[C@H](Cc2ccc(O)cc2)NC1=O` [Peptide P12-3A] (H-QSLPWCYPHCVT-NH2; disulfide 6-10 (inferred)), the Ki was found to be 2.5 ± 0.31 µM at IDE (deliberately cyclized, highly pure cosmetic-grade P12-3A, n=6, read-out: Ki against insulin degradation) and 4.1 ± 0.3 µM on IDE (substrate recombinant human insulin, Ki converted from IC50 with the Cheng-Prusoff equation, read-out: Ki Insulin). In addition, the migration of keratinocytes result in the assay with HaCaT cells is listed as “significantly increase; also recorded: potentiates the migration of keratinocytes”.

In general, Ki refers to a measure of affinity in units of concentration, obtained from inhibition or displacement.

The values above are taken from patent publication US11555055B2, “Peptide inhibitors of insulin-degrading enzyme” (The Regents of the University of California, priority 2017, dated 2023).
